Results from paper PMC2248166, “Quantitative peptide binding motifs for 19 human and mouse MHC class I molecules derived using positional scanning combinatorial peptide libraries” (Immunome Research, 2008).

What was measured:
HLA A*3001 = HLA A*3001 (Homo sapiens, UniProt P04439, D140H/D185E/E176W/F33S/G80R/H175R/K168Q/R138E/R41S); test: biochemical; type: binding
HLA A*3201 = HLA A*3201 (Homo sapiens, UniProt P04439, A270S/D101S/D185E/E176V/E277Q/F133L/G103R/G107R/G231S/H175R/I121M/I218V/I322F/K168Q/L105A/L300P/L318F/M331R/P208A/P217A/Q94H/R106L/R138Q/S129P/T104I/T323A/T345S/V100E/V321M/V358M); test: biochemical; type: binding
HLA A*6802 = HLA A*6802 (Homo sapiens, UniProt P04439, A269V/D140Y/D185E/E176V/E277Q/E87N/F33Y/G231S/I121R/I166T/I218V/L180W/L300P/L318F/N151K/P208A/P217A/Q86R/R138H/R169H/S129P/T345S/V36M); type: binding
HLA B*0702 = HLA B*0702 (Homo sapiens, UniProt P01889); type: binding; conditions: positional scanning combinatorial 9-mer library; normalized to 1.0 for the best residue at each position
HLA B*0801 = HLA B*0801 (Homo sapiens, UniProt P01889, A93T/A95T/D138N/E176V/E187T/K202T/Q94N/R180D/S35A/V36M/Y33D/Y91F); test: biochemical; type: binding
HLA B*1501 = HLA B*1501 (Homo sapiens, UniProt P01889, A329T/A93T/A95T/C349S/D201E/D98Y/E187L/E204Q/E69M/E70A/K202T/N87E/Q94N/R155S/R180W/S121R/S35A/S48A/V306I/V36M/Y140S/Y91S); test: biochemical; type: binding
HLA B*1503 = HLA B*1503 (Homo sapiens, UniProt P01889, A329T/A93T/A95T/C349S/D201E/D98Y/E187L/E204Q/K202T/N87E/Q94N/R155S/R180L/S121R/S35A/V306I/V36M/Y140S/Y91S); test: biochemical; type: binding
HLA B*2705 = HLA B*2705 (Homo sapiens, UniProt P01889, D138H/D201E/E176V/E204Q/G107R/H137Y/K202T/N104T/N87E/Q56L/Q94K/R106L/R155S/R180L/S101D/S121N/S48T/Y140D/Y33H/Y91C); type: binding; conditions: positional scanning combinatorial 9-mer library; normalized to 1.0 for the best residue at each position
HLA B*3501 = HLA B*3501 (Homo sapiens, UniProt P01889, A329T/A93T/A95T/C349S/D201E/D98Y/E176V/E187L/E204Q/E69T/I218V/K202T/L119I/Q94N/R155S/R180L/S121R/S35A/S48A/T118I/V127L/V306I/V36M/Y140S/Y91F); type: binding
HLA B*5101 = HLA B*5101 (Homo sapiens, UniProt P01889, A329T/A93T/A95T/C349S/D138N/D201E/D98Y/E187L/E204Q/E69T/G107R/I218V/K202T/L105A/L119W/N104I/Q94N/R106L/R155S/R180L/S101N/S121T/S35A/S48A/V306I/V36M/Y195H/Y91F); type: binding
HLA B*5301 = HLA B*5301 (Homo sapiens, UniProt P01889, A329T/A93T/A95T/C349S/D201E/D98Y/E176V/E187L/E204Q/E69T/G107R/I218V/K202T/L105A/L119I/N104I/Q94N/R106L/R155S/R180L/S101N/S121R/S35A/S48A/T118I/V127L/V306I/V36M/Y140S/Y91F); type: binding
HLA B*5401 = HLA B*5401 (Homo sapiens, UniProt P01889, A329T/C349S/D138N/D201E/E176V/E187T/E204Q/E69G/I76V/K202T/L119W/R155S/R180L/S121T/S35A/S48A/V127L/V306I/V36M/Y140L); type: binding
HLA B*5801 = HLA B*5801 (Homo sapiens, UniProt P01889, A329T/C349S/D201E/D98Y/E176V/E187L/E204Q/E69T/G107R/I218V/I90N/K202T/L105A/L119I/N104I/N87E/Q89R/Q94S/R106L/R155S/R180L/R86G/S101N/S121R/S35A/S48A/T118I/V127L/V306I/V36M/Y140S/Y91M); type: binding
HLA B*5802 = HLA B*5802 (Homo sapiens, UniProt P01889, A329T/C349S/D201E/D98Y/E176V/E187L/E204Q/E69T/G107R/I218V/I90N/K202T/L105A/N104I/N87E/Q89R/Q94S/R106L/R155S/R180L/R86G/S101N/S121W/S35A/S48A/V127L/V306I/V36M/Y140S/Y91M); type: binding
H-2 D^b = H-2 D^b (Mus musculus, UniProt P01899); type: binding
H-2 D^d = H-2 D^d (Mus musculus, UniProt P01900); type: binding
H-2 K^k = H-2 K^k (Mus musculus, UniProt P04223); type: binding
HLA A*0201 = HLA A*0201 (Homo sapiens, UniProt P04439, D140Y/D185E/D98H/E176V/E277Q/G131W/G231S/I119V/I121R/I166T/I218V/L300P/L318F/N151K/N90K/P208A/P217A/Q86G/Q94H/R138H/R169H/T345S); conditions: positional scanning combinatorial 9-mer library; normalized to 1.0 for the best residue at each position

Sequence of H-2 K^k (P01887 21-119): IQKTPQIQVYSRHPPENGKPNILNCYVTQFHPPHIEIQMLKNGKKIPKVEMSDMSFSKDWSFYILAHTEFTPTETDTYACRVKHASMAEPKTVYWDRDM
Sequence of H-2 K^k (P04223 22-369): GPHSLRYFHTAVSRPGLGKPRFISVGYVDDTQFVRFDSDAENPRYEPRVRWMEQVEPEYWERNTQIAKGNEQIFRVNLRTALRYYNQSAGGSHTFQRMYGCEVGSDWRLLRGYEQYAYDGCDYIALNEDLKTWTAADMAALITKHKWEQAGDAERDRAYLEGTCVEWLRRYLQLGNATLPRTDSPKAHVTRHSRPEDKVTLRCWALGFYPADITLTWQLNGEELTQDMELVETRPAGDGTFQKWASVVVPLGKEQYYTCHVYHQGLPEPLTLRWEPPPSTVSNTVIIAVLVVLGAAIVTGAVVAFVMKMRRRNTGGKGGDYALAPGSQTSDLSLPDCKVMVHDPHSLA
Sequence of H-2 D^b (P01887 21-119): as the sequence (P01887 21-119) above
Sequence of H-2 D^b (P01899 25-362): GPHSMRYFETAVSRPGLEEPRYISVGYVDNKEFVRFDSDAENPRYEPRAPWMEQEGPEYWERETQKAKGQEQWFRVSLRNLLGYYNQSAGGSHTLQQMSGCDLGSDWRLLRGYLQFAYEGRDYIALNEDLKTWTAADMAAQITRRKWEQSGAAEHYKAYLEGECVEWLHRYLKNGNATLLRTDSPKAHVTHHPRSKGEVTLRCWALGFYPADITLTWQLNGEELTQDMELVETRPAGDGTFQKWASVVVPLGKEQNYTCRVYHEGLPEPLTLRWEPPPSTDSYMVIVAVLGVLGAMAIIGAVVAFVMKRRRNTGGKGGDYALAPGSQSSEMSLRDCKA
Sequence of H-2 D^d (P01900 whole entry, looked up): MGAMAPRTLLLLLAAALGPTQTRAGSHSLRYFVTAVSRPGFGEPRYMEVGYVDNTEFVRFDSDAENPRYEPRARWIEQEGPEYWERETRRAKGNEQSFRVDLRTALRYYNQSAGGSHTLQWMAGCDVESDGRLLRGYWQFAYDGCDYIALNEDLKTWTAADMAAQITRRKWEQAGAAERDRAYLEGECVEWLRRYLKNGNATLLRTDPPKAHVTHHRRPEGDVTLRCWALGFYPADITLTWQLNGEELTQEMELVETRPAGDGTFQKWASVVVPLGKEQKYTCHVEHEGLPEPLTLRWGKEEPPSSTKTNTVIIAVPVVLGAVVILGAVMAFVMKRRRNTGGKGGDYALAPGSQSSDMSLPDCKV

Sequence	Normalized average relative binding affinity (ARB), HLA A*3001 (HLA A*3001)	Normalized average relative binding affinity (ARB), HLA A*3201 (HLA A*3201)	Normalized average relative binding affinity (ARB), HLA A*6802 (HLA A*6802)	Normalized average relative binding affinity (ARB), HLA B*0702 (HLA B*0702)	Normalized average relative binding affinity (ARB), HLA B*0801 (HLA B*0801)	Normalized average relative binding affinity (ARB), HLA B*1501 (HLA B*1501)	Normalized average relative binding affinity (ARB), HLA B*1503 (HLA B*1503)	Normalized average relative binding affinity (ARB), HLA B*2705 (HLA B*2705)	Normalized average relative binding affinity (ARB), HLA B*3501 (HLA B*3501)	Normalized average relative binding affinity (ARB), HLA B*5101 (HLA B*5101)	Normalized average relative binding affinity (ARB), HLA B*5301 (HLA B*5301)	Normalized average relative binding affinity (ARB), HLA B*5401 (HLA B*5401)	Normalized average relative binding affinity (ARB), HLA B*5801 (HLA B*5801)	Normalized average relative binding affinity (ARB), HLA B*5802 (HLA B*5802)	Normalized average relative binding affinity (ARB), H-2 Db (H-2 D^b)	Normalized average relative binding affinity (ARB), H-2 Dd (H-2 D^d)	Normalized average relative binding affinity (ARB), H-2 Kk (H-2 K^k)	Normalized average relative binding affinity (ARB), HLA A*0201 (HLA A*0201)
SXXXXXXXX [3064.0016]	0.32	0.39	0.41	0.35	1.0	0.42	0.50	0.19	0.10	0.051	0.055	0.056	0.16	0.097	0.12	0.24	0.54	0.10
XXXAXXXXX [3064.0061]	0.48	0.38	0.24	0.23	0.40	0.40	0.41	0.28	0.42	0.39	0.36	0.41	0.46	0.51	0.69	0.52	0.63	0.90
XYXXXXXXX [3064.0040]	0.46	0.032	0.017	0.0050	0.066	0.028	0.017	0.0026	0.012	0.053	0.0053	0.0039	0.029	0.030	0.071	0.013	0.0099	0.0078
